According to patent publication US20130209433A1, “MODULATION OF AMINO ACID METABOLISM IN THE HYPOTHALAMUS” (Albert Einstein College of Medicine of Yeshiva University, priority 2005, published 2013):

Columns and labels:
Sprague Dawley rats = assay: ICV (third cerebral ventricle) infusion combined with systemic pancreatic-insulin clamp; type: in vivo, rat; conditions: for rate of glucose infusion (GIR) required to prevent hypoglycemia / decrease in endogenous glucose production / rate of glucose uptake: ICV infusion; for rate of glucose infusion (GIR) required to prevent hypoglycemia / decrease in endogenous glucose production: 3 mM solution at 5 μl/h for 6 hr; for rate of glucose infusion (GIR) required to prevent hypoglycemia: basal insulin clamp; for decrease in endogenous glucose production / rate of glucose uptake: pancreatic-insulin clamp; for rate of glucose uptake: 3 mM solution at 5 μl/h
From the text: To test this hypothesis we asked whether a primary increase in hypothalamic proline is per se sufficient to inhibit glucose production, and whether this effect requires metabolism of lactate to pyruvate. Experiments were designed to examine the effect of central administration of proline on whole body insulin action. In order to selectively increase the central availability of proline, we infused this amino acid via a chronic cannula implanted in the third cerebral ventricle (ICV) of conscious rats.
Proline (PRO, 3 mM solution at 5 μl/h) or vehicle (CON) was infused ICV for 6 hr in chronically catheterized Sprague Dawley rats. Insulin action was assessed by a combination of ICV infusions with systemic pancreatic-insulin clamp studies in order to control for the circulating levels of glucoregulatory hormones.
We next examined whether the effect of central proline on glucose production requires the inter-conversion between lactate and pyruvate catalyzed by LDH. In light of the ‘astrocyte-neuron lactate shuttle hypothesis’ (Pellerin and Magistretti, 2004), we proposed that central administration of proline leads to increased glutamate synthesis results in the increased formation of lactate (increased glycolysis) in astro-glia (Pellerin and Magistretti, 2004). Based on our previous work, the increased availability of lactate would in turn be expected to induce robust changes in liver glucose fluxes. Consistent with this hypothesis, impeding the conversion of glucose to lactate in astrocytes or of lactate to pyruvate in neurons within the hypothalamus should inhibit the potent metabolic effects of central proline on liver glucose fluxes. Oxamate (OXA) is a competitive inhibitor of LDH (Brooks et al., 1999). Thus, to test this hypothesis we next co-infused ICV oxamate (50 mM; 3 μl bolus; 5 μl/h) with proline in order to examine whether lactate metabolism is required for the effects of proline and presumably of other gluconeogenic amino acids on glucose production.
The entry of ketogenic amino acids into the oxidative pathway requires their conversion to the respective keto acid a reaction that is catalyzed by various amino acid aminotransferases. The keto acid product generated by leucine aminotransferase from leucine is α-ketoisocaproic acid (KIC) that can then be converted to acetyl-CoA by the consecutive action of five enzymes. The rate-limiting step in this process is the oxidative decarboxylation of KIC catalyzed by the branched-chain ketoacid dehydrogenase complex or BCKDC. This enzyme is inhibited by phosphorylation by a BCKDC kinase. Importantly, BCKDC can be robustly activated by α-chloroisocaproic acid (α-CIC) via inhibition of the BCKDC kinase (Harris et al., 1982). To test whether the central metabolism of ketogenic amino acids such as leucine could also lead to inhibition of glucose production, we next asked whether a primary increase in hypothalamic KIC is per se sufficient to inhibit glucose production, and whether this effect also requires metabolism of lactate to pyruvate and activation of ATP-dependent potassium channels (KATP). Experiments were designed to examine the effect of central administration of KIC on whole body insulin action.

conscious rats = assay: Intrahypothalamic (mediobasal hypothalamus) infusion with pancreatic clamp; type: in vivo, rat; conditions: for glucose production: IH infusion into mediobasal hypothalamus; for rate of glucose infusion required to maintain basal glucose levels: IH infusion 0.33 μl/h (L-glutamate 1 mM; KIC 3 mM bilaterally)
Experimental: Thus, we next tested whether the intra-hypothalamic ([…]) administration of glutamate could recapitulate the effects of […] proline on glucose production.
We next aimed to localize the central effects of KIC on liver glucose production. Toward this end, we administered 3 mM KIC (0.33 μl/h) bilaterally within the parenchyma of the medial hypothalamus. The total amount of KIC given during these experiments was 15 fold lower than that used in the ICV experiments. The correct placement of the hypothalamic cannulae was verified via the infusion of radiolabeled KIC as previously reported.

COc1ccc(Cl)cc1C(=O)NCCc1ccc(S(=O)(=O)NC(=O)NC2CCCCC2)cc1 [glibenclamide, reference compound]
effect per se on rate of glucose infusion and liver glucose fluxes (Sprague Dawley rats; ICV infusion alone, pancreatic clamp): no effects | effect on the effects of ICV KIC on rate of glucose infusion and liver glucose fluxes (Sprague Dawley rats; co-infused ICV with KIC, oxamate 50 mM, 3 μl bolus, 5 μl/h, glibenclamide 100 μM, pancreatic clamp): negated

CC(C)CC(Cl)C(=O)O (stereo not drawn) [α-CIC, α-chloroisocaproic acid]
glucose production (conscious rats): decrease endogenous glucose production | blood glucose levels (conscious rats; intrahypothalamic infusion, conscious rats): lower blood glucose levels

CC(C)CC(=O)C(=O)O [KIC, α-ketoisocaproic acid]
rate of glucose infusion (GIR) required to prevent hypoglycemia (Sprague Dawley rats): 5.2 ± 0.7 mg/kg/min | decrease in endogenous glucose production (Sprague Dawley rats): 40±4% | rate of glucose uptake (Sprague Dawley rats): not significantly affected | glucose utilization (GU) (conscious rats; IH 3 mM KIC, 0.33 μl/h bilaterally, pancreatic clamp): not altered | rate of glucose infusion required to maintain basal glucose levels (conscious rats; pancreatic clamp): increase | glucose production (conscious rats): suppression

O=C(O)[C@@H]1CCCN1 [proline]
rate of glucose infusion (GIR) required to prevent hypoglycemia (Sprague Dawley rats): 5.7 ± 0.9 mg/kg/min | decrease in endogenous glucose production (Sprague Dawley rats): 36±2% | rate of glucose uptake (Sprague Dawley rats): not significantly affected

N[C@@H](CCC(=O)O)C(=O)O [L-glutamate]
circulating glucose after IH administration (conscious rats; IH 1 mM, 0.33 μl/h): 136 ± 2 mg/dL | rate of glucose infusion required to maintain basal glucose levels (conscious rats; pancreatic clamp): significantly increased | glucose production (conscious rats): marked suppression | circulating glucose before IH administration (conscious rats; basal value, before IH L-glutamate 1 mM, 0.33 μl/h): 159 ± 3 mg/dL
